Assay results taken from US20210277003A1, “OGA INHIBITOR COMPOUNDS” (Janssen Pharmaceutica NV, priority 2018, published 2021).

Legend:
[1] = molecular target: T1, recombinant human Meningioma Expressed Antigen 5 (MGEA5), also referred to as O-GlcNAcase (OGA) (Homo sapiens, UniProt O60502); test: OGA biochemical assay: inhibition of hydrolysis of fluorescein mono-ß-D-N-Acetyl-Glucosamine (FM-GlcNAc), fluorescence readout; details: FM-GlcNAc substrate; for Emax: read-out: Enzymatic Emax (%); for IC50: read-out: Enzymatic hOGA, pIC50 (converted)
T1 construct: Full length OGA enzyme was purchased at OnGene (cat #TP322411); purchased OnGene (so in the source)
T1 sequence (O60502 1-916): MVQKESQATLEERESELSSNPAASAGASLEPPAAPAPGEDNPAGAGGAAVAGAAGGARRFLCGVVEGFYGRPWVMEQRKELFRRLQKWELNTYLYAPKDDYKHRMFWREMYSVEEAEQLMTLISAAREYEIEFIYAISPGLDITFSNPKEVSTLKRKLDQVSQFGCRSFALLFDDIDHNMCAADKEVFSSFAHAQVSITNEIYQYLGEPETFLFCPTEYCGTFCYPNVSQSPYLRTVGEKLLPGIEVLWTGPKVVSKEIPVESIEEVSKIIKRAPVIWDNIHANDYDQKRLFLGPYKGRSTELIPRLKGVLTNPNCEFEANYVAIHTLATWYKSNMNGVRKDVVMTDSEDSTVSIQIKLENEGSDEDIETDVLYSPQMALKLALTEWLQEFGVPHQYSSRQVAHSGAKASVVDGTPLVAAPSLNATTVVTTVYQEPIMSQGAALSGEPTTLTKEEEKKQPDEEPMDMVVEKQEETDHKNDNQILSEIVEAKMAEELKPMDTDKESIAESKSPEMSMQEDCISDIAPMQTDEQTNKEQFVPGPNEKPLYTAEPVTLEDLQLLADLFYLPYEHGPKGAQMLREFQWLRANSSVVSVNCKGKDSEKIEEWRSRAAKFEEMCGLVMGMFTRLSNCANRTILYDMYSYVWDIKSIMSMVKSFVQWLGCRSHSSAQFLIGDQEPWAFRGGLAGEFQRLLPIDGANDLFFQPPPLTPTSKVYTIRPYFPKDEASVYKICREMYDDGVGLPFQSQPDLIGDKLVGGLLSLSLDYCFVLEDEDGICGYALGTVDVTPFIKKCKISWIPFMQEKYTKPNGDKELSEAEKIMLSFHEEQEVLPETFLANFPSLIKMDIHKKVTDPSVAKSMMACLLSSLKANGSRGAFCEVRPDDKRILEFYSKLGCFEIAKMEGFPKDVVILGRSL
Source text: The assay is based on the inhibition of the hydrolysis of fluorescein mono-ß-D-N-Acetyl-Glucosamine (FM-GlcNAc) (Mariappa et al. 2015, Biochem J 470:255) by the recombinant human Meningioma Expressed Antigen 5 (MGEA5), also referred to as O-GlcNAcase (OGA). The hydrolysis FM-GlcNAc (Marker Gene technologies, cat #M1485) results in the formation of ß-D-N-glucosamineacetate and fluorescein. The fluorescence of the latter can be measured at excitation wavelength 485 nm and emission wavelength 538 nm. An increase in enzyme activity results in an increase in fluorescence signal. Full length OGA enzyme was purchased at OnGene (cat #TP322411). The enzyme was stored in 25 mM Tris.HCl, pH 7.3, 100 mM glycine, 10% glycerol at −20° C. Thiamet G and GlcNAcStatin were tested as reference compounds (Yuzwa et al. 2008 Nature Chemical Biology 4:483; Yuzwa et al. 2012 Nature Chemical Biology 8:393). The assay was performed in 200 mM Citrate/phosphate buffer supplemented with 0.005% Tween-20. 35.6 g Na2HPO4 2 H2O (Sigma, #C0759) were dissolved in 1 L water to obtain a 200 mM solution. 19.2 g citric acid (Merck, #1.06580) was dissolved in 1 L water to obtain a 100 mM solution. pH of the sodium phosphate solution was adjusted with the citric acid solution to 7.2. The buffer to stop the reaction consists of a 500 mM Carbonate buffer, pH 11.0. 734 mg FM-GlcNAc were dissolved in 5.48 mL DMSO to obtain a 250 mM solution and was stored at −20° C. OGA was used at a 2 nM concentration and FM-GlcNAc at a 100 uM final concentration. Dilutions were prepared in assay buffer. 50 nl of a compound dissolved in DMSO was dispensed on Black Proxiplate™ 384 Plus Assay plates (Perkin Elmer, #6008269) and 3 μl fl-OGA enzyme mix added subsequently. Plates were pre-incubated for 60 min at room temperature and then 2 μl FM-GlcNAc substrate mix added. […] Plates were briefly centrifuged for 1 min at 1000 rpm and incubate at room temperature for 6 h. To stop the reaction 5 μl STOP buffer were added and plates centrifuge again 1 min at 1000 rpm. Fluorescence was quantified in the Thermo Scientific Fluoroskan Ascent or the PerkinElmer EnVision with excitation wavelength 485 nm and emission wavelength 538 nm. For analysis a best-fit curve is fitted by a minimum sum of squares method. From this an IC50 value and Hill coefficient was obtained. High control (no inhibitor) and low control (saturating concentrations of standard inhibitor) were used to define the minimum and maximum values.

[2] = tested on: OGA in HEK293 cells inducible for P301L mutant human Tau (isoform 2N4R); test: OGA cellular assay: immunocytochemical detection of O-GlcNAcylated proteins (CTD110.6 antibody); assay type: cell-based; details: Homo sapiens, HEK293, 6 h, 6 hours incubation; for Emax: maximum = Thiamet G 200 uM; for EC50: read-out: Cellular hOGA, pEC50 (converted)
Procedure: HEK293 cells inducible for P301L mutant human Tau (isoform 2N4R) were established at Janssen. Thiamet-G was used for both plate validation (high control) and as reference compound (reference EC50 assay validation). OGA inhibition is evaluated through the immunocytochemical (ICC) detection of O-GlcNAcylated proteins by the use of a monoclonal antibody (CTD110.6; Cell Signaling, #9875) detecting 0-GlcNAcylated residues as previously described (Dorfmueller et al. 2010 Chemistry & biology, 17:1250). Inhibition of OGA will result in an increase of O-GlcNAcylated protein levels resulting in an increased signal in the experiment. Cell nuclei are stained with Hoechst to give a cell culture quality control and a rough estimate of immediate compounds toxicity, if any. ICC pictures are imaged with a Perkin Elmer Opera Phenix plate microscope and quantified with the provided software Perkin Elmer Harmony 4.1.
Cells were propagated in DMEM high Glucose (Sigma, #D5796) following standard procedures. 2 days before the cell assay cells are split, counted and seeded in Poly-D-Lysine (PDL) coated 96-wells (Greiner, #655946) plate at a cell density of 12,000 cells per cm^2 (4,000 cells per well) in 100p of Assay Medium (Low Glucose medium is used to reduce basal levels of GlcNAcylation) (Park et al. 2014 The Journal of biological chemistry 289:13519). At the day of compound test medium from assay plates was removed and replenished with 90 µl of fresh Assay Medium. 10p of compounds at a 10 fold final concentration were added to the wells. Plates were centrifuged shortly before incubation in the cell incubator for 6 hours. DMSO concentration was set to 0.2%. Medium is discarded by applying vacuum. For staining of cells medium was removed and cells washed once with 100 μl D-PBS (Sigma, #D8537). From next step onwards unless other stated assay volume was always 50p and incubation was performed without agitation and at room temperature. Cells were fixed in 50 μl of a 4% paraformaldehyde (PFA, Alpha aesar, #043368) PBS solution for 15 minutes at room temperature. […] Before analysis samples were washed 2 times manually for 5 minutes in ICC base buffer.
Imaging is performed using Perkin Elmer Phenix Opera using a water 20× objective and recording 9 fields per well. Intensity readout at 488 nm is used as a measure of O-GlcNAcylation level of total proteins in wells. To assess potential toxicity of compounds nuclei were counted using the Hoechst staining. IC50-values are calculated using parametric non-linear regression model fitting. As a maximum inhibition Thiamet G at a 200 uM concentration is present on each plate. In addition, a concentration response of Thiamet G is calculated on each plate.

Row | Structure (SMILES) | Emax [1] [%] | IC50 [1] [nM] | Emax [2] [%] | EC50 [2] [nM] | Enzymatic hOGA; pIC50 [1]
1 | Cc1cc(Cl)cc(S(C)(=O)=O)c1Nc1nccc2c1ccn2CC1CC(F)(F)C1 [Compound 173] | 101 | 23.4 | 88.5 | 158 | 
2 | Clc1cccc(Cl)c1Nc1nccc2c1ccn2Cc1ccon1 [Compound 172] | 102 | 3.39 | 80.8 | 70.8 | 
3 | CCCCn1ccc2c(Nc3c(Cl)cccc3Cl)nccc21 [Compound 71] | 101 | 2.24 | 78 | 47.9 | 
4 | CCCCn1ccc2c(Nc3c(C)cncc3C)nccc21 [Compound 52] | 103 | 9.55 | 72 | 26.9 | 
5 | CCCCn1cc(F)c2c(Nc3c(C)cncc3C)nccc21 [Compound 34] | 99 | 178 | 36 | > 1000 | 
6 | Cc1ccnc(C(C)C)c1Nc1nccc2c1ccn2CC1CCO1 (stereo not shown) [Compound 160] | 103 |  | 96 | 8.13 | 8.67
7 | CCCCn1ccc2c(Nc3c(C)ccc(C(=O)N4CCCC4)c3C)nccc21 [Compound 55] | 103 | 1.7 | 104 | 22.4 | 
8 | CCCCn1ccc2c(Nc3c(C)ccc4cccnc34)nccc21 [Compound 15] | 101 |  | 71 | 562 | 7.18
9 | Cc1ccnc(C(F)F)c1Nc1nccc2c1ccn2CC(C)(F)F [Compound 134] | 99.9 |  | 77.5 | 81.3 | 8.28
10 | CC[C@@H](O)Cn1ccc2c(Nc3c(C)cc(C#N)cc3Cl)nccc21 [Compound 123a] | 102 |  | 63.8 | 437 | 7.56
11 | CCCCn1ccc2c(Nc3c(C)cccc3C)nccc21 [Compound 72] | 100 | 5.62 | 78 | 53.7 | 
12 | CCCCn1ccc2c(Nc3c(C)ccc(C(=O)N4CCOCC4)c3C)nccc21 [Compound 13] | 105 |  | 87 | 28.2 | 8.49
13 | Cc1ccnc(C)c1Nc1nccc2c1ccn2CC(C)O (stereo not shown) [Compound 144] | 100 |  | 79 | 182 | 7.25
